In ChEMBL document CHEMBL4422634, “Discovery of novel anti-angiogenesis agents. Part 9: Multiplex inhibitors suppressing compensatory activations of RTKs” (Eur J Med Chem, 2019):

Columns and labels:
Angiopoietin-1 receptor = Angiopoietin-1 receptor (Homo sapiens, UniProt Q02763); assay: Inhibition of Tie-2 (unknown origin) after 1 hrs by ADP-Glo luminescence assay
[1] = biological target: Vascular endothelial growth factor receptor 2 (Homo sapiens, UniProt P35968); assay: Inhibition of VEGFR-2 (unknown origin) after 1 hrs by ADP-Glo luminescence assay
EA.hy 926 = assay: Antiproliferative activity against human EAhy926 cells assessed as reduction in cell viability after 24 hrs by CCK-8 assay; settings: EA.hy 926, 24 h
Ephrin type-B receptor 4 = biological target: T1, Ephrin type-B receptor 4 (Homo sapiens, UniProt P54760); assay: Inhibition of EphB4 (unknown origin) after 1 hrs by ADP-Glo luminescence assay
T1 sequence (P54760 whole entry): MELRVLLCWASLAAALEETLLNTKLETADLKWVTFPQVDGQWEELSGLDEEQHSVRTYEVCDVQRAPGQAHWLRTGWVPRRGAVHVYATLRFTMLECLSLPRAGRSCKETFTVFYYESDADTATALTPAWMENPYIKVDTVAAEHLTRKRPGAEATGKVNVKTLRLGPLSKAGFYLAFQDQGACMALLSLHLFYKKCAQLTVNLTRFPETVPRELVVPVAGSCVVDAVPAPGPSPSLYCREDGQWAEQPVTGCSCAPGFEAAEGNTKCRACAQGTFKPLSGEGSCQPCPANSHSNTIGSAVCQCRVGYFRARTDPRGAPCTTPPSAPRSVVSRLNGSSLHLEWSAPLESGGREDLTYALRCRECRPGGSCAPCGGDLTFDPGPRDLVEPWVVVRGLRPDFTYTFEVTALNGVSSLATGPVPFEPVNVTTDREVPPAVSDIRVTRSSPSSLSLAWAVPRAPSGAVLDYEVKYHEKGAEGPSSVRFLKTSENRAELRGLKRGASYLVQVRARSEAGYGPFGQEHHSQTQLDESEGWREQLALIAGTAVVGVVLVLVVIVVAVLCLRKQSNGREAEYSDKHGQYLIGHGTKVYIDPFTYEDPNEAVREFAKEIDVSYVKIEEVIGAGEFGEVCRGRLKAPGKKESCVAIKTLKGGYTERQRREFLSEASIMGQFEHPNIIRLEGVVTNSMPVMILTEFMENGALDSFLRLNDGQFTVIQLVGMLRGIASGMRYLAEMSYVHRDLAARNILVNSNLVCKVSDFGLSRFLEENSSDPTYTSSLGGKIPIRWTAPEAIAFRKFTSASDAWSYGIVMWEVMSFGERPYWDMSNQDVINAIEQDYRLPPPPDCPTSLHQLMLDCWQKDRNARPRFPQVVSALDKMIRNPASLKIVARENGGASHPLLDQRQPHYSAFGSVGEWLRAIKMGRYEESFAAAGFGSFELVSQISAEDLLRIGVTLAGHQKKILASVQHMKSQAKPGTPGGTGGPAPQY

A-431 = assay: Antiproliferative activity against human A431 cells after 48 hrs by MTT assay; settings: A-431, 48 h
LoVo = assay: Antiproliferative activity against human LoVo cells after 48 hrs by MTT assay
MCF7 = assay: Antiproliferative activity against human MCF7 cells after 48 hrs by MTT assay; settings: MCF7, 48 h
A549 = assay: Antiproliferative activity against human A549 cells after 48 hrs by MTT assay; settings: A549, 48 h
HeLa = assay: Antiproliferative activity against human HeLa cells after 48 hrs by MTT assay

Angiopoietin-1 receptor, sequence (Q02763 whole entry): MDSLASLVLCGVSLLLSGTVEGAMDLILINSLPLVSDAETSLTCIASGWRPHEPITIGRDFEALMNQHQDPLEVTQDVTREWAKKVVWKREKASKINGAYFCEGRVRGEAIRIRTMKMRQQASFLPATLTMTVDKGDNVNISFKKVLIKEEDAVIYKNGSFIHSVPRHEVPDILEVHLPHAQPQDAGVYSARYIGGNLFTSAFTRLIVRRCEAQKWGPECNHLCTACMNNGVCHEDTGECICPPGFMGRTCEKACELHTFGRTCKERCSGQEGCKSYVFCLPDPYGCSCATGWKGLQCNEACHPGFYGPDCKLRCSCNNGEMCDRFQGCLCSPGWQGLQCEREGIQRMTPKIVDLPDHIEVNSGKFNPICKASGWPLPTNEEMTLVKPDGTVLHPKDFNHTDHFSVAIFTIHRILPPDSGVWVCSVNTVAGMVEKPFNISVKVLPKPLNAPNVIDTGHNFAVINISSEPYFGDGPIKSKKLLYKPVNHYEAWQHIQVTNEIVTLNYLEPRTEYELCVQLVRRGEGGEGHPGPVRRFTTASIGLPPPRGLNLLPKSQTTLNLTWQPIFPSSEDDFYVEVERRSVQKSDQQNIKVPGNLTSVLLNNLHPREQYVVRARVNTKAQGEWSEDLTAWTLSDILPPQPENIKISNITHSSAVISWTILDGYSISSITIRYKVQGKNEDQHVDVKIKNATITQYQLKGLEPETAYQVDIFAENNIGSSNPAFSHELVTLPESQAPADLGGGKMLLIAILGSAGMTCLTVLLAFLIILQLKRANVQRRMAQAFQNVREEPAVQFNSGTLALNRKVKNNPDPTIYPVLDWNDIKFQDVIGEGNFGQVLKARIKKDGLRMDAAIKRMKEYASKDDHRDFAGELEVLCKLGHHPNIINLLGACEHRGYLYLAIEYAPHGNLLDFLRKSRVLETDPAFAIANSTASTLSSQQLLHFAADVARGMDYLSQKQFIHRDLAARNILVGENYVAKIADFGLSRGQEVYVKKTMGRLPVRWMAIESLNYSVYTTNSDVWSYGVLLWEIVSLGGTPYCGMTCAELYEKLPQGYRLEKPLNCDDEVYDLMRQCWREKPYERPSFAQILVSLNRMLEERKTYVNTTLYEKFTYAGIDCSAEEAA
Vascular endothelial growth factor receptor 2, sequence (P35968 whole entry): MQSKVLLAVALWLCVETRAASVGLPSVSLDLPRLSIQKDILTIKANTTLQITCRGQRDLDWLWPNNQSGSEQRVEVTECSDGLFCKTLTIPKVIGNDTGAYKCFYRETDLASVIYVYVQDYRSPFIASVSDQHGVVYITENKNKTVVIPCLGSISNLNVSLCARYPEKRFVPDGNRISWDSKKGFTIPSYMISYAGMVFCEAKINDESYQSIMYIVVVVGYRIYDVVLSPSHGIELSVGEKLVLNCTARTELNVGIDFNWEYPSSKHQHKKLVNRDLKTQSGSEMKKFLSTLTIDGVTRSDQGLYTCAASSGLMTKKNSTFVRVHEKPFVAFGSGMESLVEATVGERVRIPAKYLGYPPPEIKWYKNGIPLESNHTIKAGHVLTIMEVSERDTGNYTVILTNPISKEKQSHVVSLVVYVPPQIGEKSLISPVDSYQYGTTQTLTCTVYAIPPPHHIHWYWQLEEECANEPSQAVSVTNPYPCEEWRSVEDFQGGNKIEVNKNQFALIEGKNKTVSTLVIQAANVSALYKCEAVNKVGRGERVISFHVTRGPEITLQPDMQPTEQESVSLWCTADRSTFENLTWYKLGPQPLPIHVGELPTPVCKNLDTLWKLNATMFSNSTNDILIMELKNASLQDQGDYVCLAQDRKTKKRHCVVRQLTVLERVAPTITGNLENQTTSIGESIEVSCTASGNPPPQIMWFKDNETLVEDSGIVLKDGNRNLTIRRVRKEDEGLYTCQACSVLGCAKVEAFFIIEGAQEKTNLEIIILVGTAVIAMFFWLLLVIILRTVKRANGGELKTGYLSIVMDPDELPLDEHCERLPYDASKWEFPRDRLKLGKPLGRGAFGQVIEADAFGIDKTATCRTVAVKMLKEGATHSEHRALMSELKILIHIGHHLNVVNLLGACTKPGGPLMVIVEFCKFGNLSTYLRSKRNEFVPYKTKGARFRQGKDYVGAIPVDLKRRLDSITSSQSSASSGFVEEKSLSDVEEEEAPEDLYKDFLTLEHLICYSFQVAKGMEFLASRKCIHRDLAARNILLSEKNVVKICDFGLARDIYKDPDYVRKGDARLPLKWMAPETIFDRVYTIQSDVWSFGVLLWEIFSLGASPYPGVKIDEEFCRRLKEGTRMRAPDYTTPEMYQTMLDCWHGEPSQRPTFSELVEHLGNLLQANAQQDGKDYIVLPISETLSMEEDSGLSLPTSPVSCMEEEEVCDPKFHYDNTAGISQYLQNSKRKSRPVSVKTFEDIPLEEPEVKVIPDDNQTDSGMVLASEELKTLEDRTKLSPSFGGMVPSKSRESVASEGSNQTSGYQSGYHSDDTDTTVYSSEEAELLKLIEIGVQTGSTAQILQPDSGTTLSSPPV

Q: How did the IC50 (Angiopoietin-1 receptor) turn out when `Cc1cccc(-c2cn(Cc3ccc(-c4cnn(C)c4)cc3)nn2)c1` was run?
A: 51.4 nM

Q: And the IC50 [1]?
A: > 1000 nM

Q: And the IC50 (EA.hy 926)?
A: 1110 nM

Q: With `Fc1ccccc1-c1cn(Cc2ccc(-c3cn[nH]c3)cc2)nn1` as the compound, how does the IC50 (Angiopoietin-1 receptor) read?
A: 5.46 nM

Q: What about the IC50 (EA.hy 926) of the same compound?
A: 20000 nM

Q: Which results are given for `O=C(Nc1cccc(-c2cn(Cc3ccc(-c4cncnc4)cc3)nn2)c1)C1CC1`?
A: IC50 (Angiopoietin-1 receptor): > 1000 nM; IC50 (Ephrin type-B receptor 4): > 1000 nM; IC50 (EA.hy 926): 17300 nM

Q: Which IC50 (Angiopoietin-1 receptor) does the source give for `Nc1cccc(-c2cn(Cc3ccc(-c4cncnc4)cc3)nn2)c1` here?
A: 210 nM

Q: What about the IC50 (Ephrin type-B receptor 4) of the same compound?
A: > 1000 nM

Q: What about the IC50 (EA.hy 926) of the same compound?
A: 30200 nM

Q: For `FC(F)(F)c1ccc(-c2cn(Cc3ccc(-c4cncnc4)cc3)nn2)cc1`, which IC50 (Angiopoietin-1 receptor) is on record?
A: > 1000 nM

Q: What about the IC50 (Ephrin type-B receptor 4) of the same compound?
A: > 1000 nM

Q: What about the IC50 (EA.hy 926) of the same compound?
A: 46800 nM

Q: Which IC50 (Angiopoietin-1 receptor) does the source give for `Cc1ccc(-c2cn(Cc3ccc(-c4cncnc4)cc3)nn2)cc1` here?
A: 25.7 nM

Q: And the IC50 (EA.hy 926)?
A: 1010 nM

Q: Which IC50 (Angiopoietin-1 receptor) does the source give for `Cn1cc(-c2ccc(Cn3cc(-c4ccccc4)nn3)cc2)cn1` here?
A: > 1000 nM

Q: What about the IC50 (EA.hy 926) of the same compound?
A: 62200 nM

Q: Which results are given for `c1ccc(-c2cn(Cc3ccc(-c4cncnc4)cc3)nn2)cc1`?
A: IC50 (Angiopoietin-1 receptor): 51.9 nM; IC50 [1]: > 1000 nM; IC50 (EA.hy 926): 35500 nM

Q: Which results are given for `Fc1ccccc1-c1cn(Cc2ccc(-c3cncnc3)cc2)nn1`?
A: IC50 (Angiopoietin-1 receptor): 5.45 nM; IC50 (EA.hy 926): 22500 nM

Q: `Cn1cc(-c2ccc(Cn3cc(-c4ccccc4F)nn3)cc2)cn1` was tested. Which IC50 (A-431) did it give?
A: 7290 nM

Q: And the IC50 (LoVo)?
A: 1320 nM

Q: What about the IC50 (Angiopoietin-1 receptor) of the same compound?
A: 2.69 nM

Q: And the IC50 (MCF7)?
A: 15600 nM

Q: And the IC50 (A549)?
A: 1200 nM

Q: And the IC50 (EA.hy 926)?
A: 1900 nM

Q: What about the IC50 (HeLa) of the same compound?
A: 27800 nM

Q: Which results are given for `Nc1cccc(-c2cn(Cc3ccc(-c4cn[nH]c4)cc3)nn2)c1`?
A: IC50 (Angiopoietin-1 receptor): > 1000 nM; IC50 (Ephrin type-B receptor 4): > 1000 nM; IC50 [1]: > 1000 nM; IC50 (EA.hy 926): 251000 nM

Q: What does the source list for `Cc1cccc(-c2cn(Cc3ccc(-c4cn[nH]c4)cc3)nn2)c1`?
A: IC50 (Angiopoietin-1 receptor): 46.4 nM; IC50 (Ephrin type-B receptor 4): > 1000 nM; IC50 (EA.hy 926): 134000 nM

Q: Which results are given for `Cn1cc(-c2ccc(Cn3cc(-c4cccc(C(F)(F)F)c4)nn3)cc2)cn1`?
A: IC50 (Angiopoietin-1 receptor): 1.79 nM; IC50 (EA.hy 926): 69000 nM

Q: `Cn1cc(-c2ccc(Cn3cc(-c4cccc(N)c4)nn3)cc2)cn1` was tested. Which IC50 (Angiopoietin-1 receptor) did it give?
A: > 1000 nM

Q: And the IC50 (Ephrin type-B receptor 4)?
A: > 1000 nM

Q: And the IC50 (EA.hy 926)?
A: 22000 nM

Q: How did the IC50 (Angiopoietin-1 receptor) turn out when `Cn1cc(-c2ccc(Cn3cc(-c4ccc(C(F)(F)F)cc4)nn3)cc2)cn1` was run?
A: 9.11 nM

Q: And the IC50 [1]?
A: > 1000 nM

Q: `Cn1cc(-c2ccc(Cn3cc(-c4cccc(NC(=O)C5CC5)c4)nn3)cc2)cn1` was tested. Which IC50 (Angiopoietin-1 receptor) did it give?
A: 0.82 nM

Q: What about the IC50 (Ephrin type-B receptor 4) of the same compound?
A: > 1000 nM

Q: What about the IC50 (EA.hy 926) of the same compound?
A: 484000 nM

Q: With `Cc1ccc(-c2cn(Cc3ccc(-c4cnn(C)c4)cc3)nn2)cc1` as the compound, how does the IC50 (Angiopoietin-1 receptor) read?
A: 77.4 nM

Q: And the IC50 (EA.hy 926)?
A: 38100 nM

Q: With `Cc1cccc(-c2cn(Cc3ccc(-c4cncnc4)cc3)nn2)c1` as the compound, how does the IC50 (Angiopoietin-1 receptor) read?
A: 13.7 nM

Q: And the IC50 (EA.hy 926)?
A: 142000 nM

Q: For `Clc1cccc(-c2cn(Cc3ccc(-c4cncnc4)cc3)nn2)c1`, which IC50 (Ephrin type-B receptor 4) is on record?
A: > 1000 nM

Q: And the IC50 (EA.hy 926)?
A: 7830 nM

Q: Which IC50 (Angiopoietin-1 receptor) does the source give for `FC(F)(F)c1ccc(-c2cn(Cc3ccc(-c4cn[nH]c4)cc3)nn2)cc1` here?
A: > 1000 nM

Q: And the IC50 [1]?
A: > 1000 nM

Q: What about the IC50 (EA.hy 926) of the same compound?
A: 20900 nM

Q: For `CNC(=O)c1cc(Oc2ccc(NC(=O)Nc3ccc(Cl)c(C(F)(F)F)c3)cc2)ccn1` [SORAFENIB], which IC50 (A-431) is on record?
A: 3320 nM

Q: What about the IC50 (LoVo) of the same compound?
A: 2520 nM

Q: And the IC50 (MCF7)?
A: 3470 nM

Q: And the IC50 (A549)?
A: 3880 nM

Q: And the IC50 (HeLa)?
A: 8740 nM
